Usually EC50 stands for the concentration needed to bring the measured effect to its halfway point.

T1 sequence (O43525 whole entry): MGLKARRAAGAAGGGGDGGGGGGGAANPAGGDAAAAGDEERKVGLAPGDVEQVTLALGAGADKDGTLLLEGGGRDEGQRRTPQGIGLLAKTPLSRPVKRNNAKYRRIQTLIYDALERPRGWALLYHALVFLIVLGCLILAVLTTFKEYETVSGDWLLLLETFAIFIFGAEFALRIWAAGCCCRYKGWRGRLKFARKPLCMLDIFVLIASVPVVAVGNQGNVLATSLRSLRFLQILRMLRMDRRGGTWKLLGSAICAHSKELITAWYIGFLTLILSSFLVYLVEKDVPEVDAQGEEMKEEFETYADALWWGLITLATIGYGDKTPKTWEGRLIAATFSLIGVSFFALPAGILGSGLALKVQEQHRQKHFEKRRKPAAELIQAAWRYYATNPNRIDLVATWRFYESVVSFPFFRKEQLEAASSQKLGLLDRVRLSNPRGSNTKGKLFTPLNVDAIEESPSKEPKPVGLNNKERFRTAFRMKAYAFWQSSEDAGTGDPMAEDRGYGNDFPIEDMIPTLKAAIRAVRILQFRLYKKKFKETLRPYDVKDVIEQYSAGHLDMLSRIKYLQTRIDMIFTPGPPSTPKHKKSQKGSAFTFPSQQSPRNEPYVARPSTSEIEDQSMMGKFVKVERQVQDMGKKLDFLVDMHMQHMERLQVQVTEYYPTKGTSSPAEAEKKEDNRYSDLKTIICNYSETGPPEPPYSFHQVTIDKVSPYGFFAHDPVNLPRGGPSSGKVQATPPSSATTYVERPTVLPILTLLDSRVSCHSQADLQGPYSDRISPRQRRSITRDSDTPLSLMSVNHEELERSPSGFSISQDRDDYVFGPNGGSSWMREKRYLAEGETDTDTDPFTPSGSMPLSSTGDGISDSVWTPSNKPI
T1 sequence (O43526 whole entry): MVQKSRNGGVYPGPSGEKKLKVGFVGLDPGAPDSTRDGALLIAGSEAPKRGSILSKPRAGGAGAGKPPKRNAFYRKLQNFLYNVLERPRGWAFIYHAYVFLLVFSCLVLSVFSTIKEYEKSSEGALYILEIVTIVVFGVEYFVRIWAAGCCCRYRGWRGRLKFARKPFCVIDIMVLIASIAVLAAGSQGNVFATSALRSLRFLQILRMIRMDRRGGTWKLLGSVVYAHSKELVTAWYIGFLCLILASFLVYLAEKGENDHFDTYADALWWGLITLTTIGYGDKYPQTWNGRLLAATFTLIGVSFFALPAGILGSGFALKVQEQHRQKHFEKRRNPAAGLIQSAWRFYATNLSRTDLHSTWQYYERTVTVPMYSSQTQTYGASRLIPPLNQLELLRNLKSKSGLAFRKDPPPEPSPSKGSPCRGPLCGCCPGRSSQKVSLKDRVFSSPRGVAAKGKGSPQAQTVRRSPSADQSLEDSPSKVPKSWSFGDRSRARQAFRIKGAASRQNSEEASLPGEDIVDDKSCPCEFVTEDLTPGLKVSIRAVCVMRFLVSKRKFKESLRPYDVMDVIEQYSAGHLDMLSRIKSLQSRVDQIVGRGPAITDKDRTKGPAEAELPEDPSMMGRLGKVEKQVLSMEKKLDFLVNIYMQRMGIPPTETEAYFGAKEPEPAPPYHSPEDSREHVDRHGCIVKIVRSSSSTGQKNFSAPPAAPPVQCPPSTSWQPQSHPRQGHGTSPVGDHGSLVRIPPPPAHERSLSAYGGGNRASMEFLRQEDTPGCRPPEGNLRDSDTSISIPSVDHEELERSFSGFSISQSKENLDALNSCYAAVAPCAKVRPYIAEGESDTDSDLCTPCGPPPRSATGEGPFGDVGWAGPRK

This assay concerns the target T1, hKCNQ2/3 (Homo sapiens, UniProt O43525+O43526).
T1 construct: expressed in transfected cells; host or cells: CHO
Nature of the assay: hKCNQ2/3 thallium flux assay (FLIPR). It is filed as cell-based. Particulars: agonistic effect, CHO cell line stably expressing hKCNQ2/3. The text has this: The present disclosure also provides the following assay methods: • Assay method 1: hKCNQ2/3 thallium flux assay • Purpose of the assay: To determine the in vitro concentration-response relationship of the compounds in a CHO cell line stably expressing hKCNQ2/3 using FLIPR thallium flux assay.
CHO cells stably transfected with hKCNQ2/3.
The cell line was passaged three times a week at a split ratio of 1:2 to 1:3. When the cells grew to a confluence degree of greater than 80% in a T-75 cell flask, they were digested with 0.25% trypsin-EDTA solution for about 1 minute, and then the cells were transferred from the cell flask for passage. According to the split ratio, the cells were transferred to another T-75 cell flask containing complete cell growth culture medium. Note: In order to maintain the logarithmic growth of cells, the cell growth should be maintained in a subconfluent monolayer state. The cells were passaged every 2 to 3 days according to the cell doubling time.
• (1) Day 1, cell preparation: The cells were digested according to the above method, and the cell density and viability were determined using Cell Countess. The volume of the single-cell suspension was adjusted with complete cell growth culture medium. Then, the hKCNQ2/3_CHO cells were seeded at a density of approximately 20,000 cells/well (30 µL/well) into a PDL-precoated 384-well plate. Then, the plate was incubated at 37 °C with 5% CO2 humidified air in an incubator overnight. • (2) Day 2, compound preparation: A test compound was diluted to a storage concentration with dimethyl sulfoxide (DMSO), and stored in a freezer at -20 °C. A compound addition program was set up on the ECHO liquid workstation, and the compound was added to the plate using the ECHO liquid workstation. A positive control was prepared using Retigabine (RTG) with a maximum concentration of 100 µM, which was subjected to a 3-fold dilution, resulting in a total of 9 doses constituting the plate map required for plating. Prepare the plate using a stimulation buffer containing 5 mM K^+ and 1 mM Tl^+. Note: 1) K2SO4 and Tl2SO4 were prepared in a 1× chloride-free buffer. When different voltage-gated potassium channels were involved, the concentrations of Tl^+ and K^+ were needed to be adjusted. The concentration of Tl^+ was approximately 0.5 mM to 5 mM, and the concentration of K^+ was approximately 5 mM to 30 mM. 2) Each 1 mM solution of K2SO4 and Tl2SO4 contained 2 mM K^+ and Tl^+. The final concentration should be calculated based on the ion concentrations. 3) TlCl was easily precipitated and a chloride-free buffer was required. • (3) Day 2, assay testing: When the cells reached the confluence degree, the cell analysis plate was taken out from the incubator. The assay buffer was prepared and the Tl^+ dye (Molecular Devices # R8222) was diluted. The culture medium was discarded using the liquid workstation Bravo and 25 µL of Tl^+ dye was added to each well. The plate was incubated for 1 hour, and then the cell analysis plate, composite plate, and FLIPR tip were placed in FLIPR^TETRA (Molecular Devices, USA) for FLIPR assay. The tip was set up, and then the baseline was read for 60 seconds. Then, 12.5 µL from the composite plate (3×) was added to the cell analysis plate, and the data were recorded for at least 5 minutes at the same time. • (4) Data processing: The maximum signal was generated with FLIPR software. Excel (2013) and Prism 6.01 were used for data analysis. The data quality control was performed with S/B > 2.00 and Z-factor > 0.50. IC50 or EC50 was defined as the midline between the lowest and the highest plateaus, and it was calculated using a four-parameter logistic model with Prism 6.01.
Purpose of the assay: To determine the in vitro concentration-response relationship of the compounds in a CHO cell line stably expressing hKCNQ2/3 using FLIPR thallium flux assay. […]
On to `CC(C)(C)CC(=O)Nc1nc2c(F)cc(C#N)cn2c1C1=CCCC1` [Compound 3], for which the midpoint of the response, the EC50, lay at 480 nM. `CC(C)(C)CC(=O)Nc1nc2c(F)cc(C#N)cn2c1C12CC(C1)C2` [Compound 5] yielded an EC50 of 200 nM. In the case of `CC(C)(C)CC(=O)Nc1nc2c(C(F)(F)F)cc(C#N)cn2c1C12CC(C1)C2` [Compound 6] it was 710 nM.

The values are drawn from patent publication EP4786454A1, “HETEROARYL DERIVATIVE AND USE THEREOF” (priority 2023, dated 2025).
